Test results reported in PubChem BioAssay AID248 (DTP/NCI, 2004).
Where “and” joins values, the source holds several entries; their conditions need not be identical. Identical values can stand only once. Inconclusive results and toxic doses are left out. No stated cut-off is given here; in the data, active means T/C of 150% or more; inactive means T/C below 125%.

Test system: L1210 leukemia ip in BDF1 mice, survival T/C
Test: NCI In Vivo Anticancer Drug Screen. Data for tumor model L1210 Leukemia (intraperitoneal) in B6D2F1 (BDF1) mice
Conditions: endpoint: mean survival time, higher = longer survival
Outline: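 Transplanted-tumor mice were given test agent; controls received vehicle only. Survival readings from the two groups were divided (treated over control).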

[1] = dose: 100.0 mg/kg/injection, schedule: Q01DX009 (ip), vehicle: saline with Tween-80
[2] = dose: 200.0 mg/kg/injection, schedule: Q01DX009 (ip), vehicle: saline with Tween-80
[3] = dose: 50.0 mg/kg/injection, schedule: Q01DX009 (ip), vehicle: saline with Tween-80
[4] = dose: 100.0 mg/kg/injection, schedule: Q01DX001 (ip), vehicle: saline
[5] = dose: 100.0 mg/kg/injection, schedule: Q01DX009 (ip), vehicle: saline
[6] = dose: 100.0 mg/kg/injection, schedule: Q04DX003 (ip), vehicle: saline
[7] = dose: 6.25 mg/kg/injection, schedule: Q01DX009 (ip), vehicle: saline
[8] = dose: 12.5 mg/kg/injection, schedule: Q01DX009 (ip), vehicle: saline
[9] = dose: 25.0 mg/kg/injection, schedule: Q01DX009 (ip), vehicle: saline
[10] = dose: 25.0 mg/kg/injection, schedule: Q04DX003 (ip), vehicle: saline
[11] = dose: 100.0 mg/kg/injection, schedule: Q04DX003 (ip), vehicle: saline with Tween-80
[12] = dose: 200.0 mg/kg/injection, schedule: Q04DX003 (ip), vehicle: saline with Tween-80
[13] = dose: 400.0 mg/kg/injection, schedule: Q04DX003 (ip), vehicle: saline with Tween-80

Measured: T/C

CC(C)C1CC=CCC12C(=O)NC(=O)NC2=O (configuration not stated)
inactive: dose: 75.0 mg/kg/injection, schedule: Q01DX001 (ip), vehicle: other 104 % of control | dose: 150.0 mg/kg/injection, schedule: Q01DX001 (ip), vehicle: other 97 % of control | dose: 300.0 mg/kg/injection, schedule: Q01DX001 (ip), vehicle: other 93 % of control

CCSCCC(N)C(=O)O (configuration not stated)
inactive: dose: 10.25 mg/kg/injection, schedule: Q01DX Z (ip), vehicle: carboxymethylcellulose (CMC) 97 % of control | dose: 18.75 mg/kg/injection, schedule: Q01DX Z (ip), vehicle: carboxymethylcellulose (CMC) 91 % of control | dose: 20.5 mg/kg/injection, schedule: Q01DX Z (ip), vehicle: carboxymethylcellulose (CMC) 113 % of control | dose: 37.5 mg/kg/injection, schedule: Q01DX Z (ip), vehicle: carboxymethylcellulose (CMC) 93 % of control | dose: 41.0 mg/kg/injection, schedule: Q01DX Z (ip), vehicle: carboxymethylcellulose (CMC) 103 % of control | dose: 75.0 mg/kg/injection, schedule: Q01DX Z (ip), vehicle: carboxymethylcellulose (CMC) 96 % of control | dose: 82.0 mg/kg/injection, schedule: Q01DX Z (ip), vehicle: carboxymethylcellulose (CMC) 103 % of control | dose: 100.0 mg/kg/injection, schedule: Q01DX001 (ip), vehicle: carboxymethylcellulose (CMC) 102 % of control | dose: 150.0 mg/kg/injection, schedule: Q01DX Z (ip), vehicle: carboxymethylcellulose (CMC) 100 % of control | dose: 200.0 mg/kg/injection, schedule: Q01DX001 (ip), vehicle: carboxymethylcellulose (CMC) 107 % of control | dose: 400.0 mg/kg/injection, schedule: Q01DX001 (ip), vehicle: carboxymethylcellulose (CMC) 95 % of control

Cc1ccc(S(=O)(=O)OCC2OC(n3cnc4c(NC=O)ncnc43)C(OC=O)C2OC=O)cc1 (configuration not stated)
inactive: dose: 50.0 mg/kg/injection, schedule: Q01DX009 (ip), vehicle: gum acacia 115 % of control | dose: 100.0 mg/kg/injection, schedule: Q01DX005 (ip), vehicle: saline 105 % of control | dose: 100.0 mg/kg/injection, schedule: Q01DX009 (ip), vehicle: gum acacia 104 % of control | dose: 200.0 mg/kg/injection, schedule: Q01DX009 (ip), vehicle: gum acacia 100 % of control

N#Cc1ccccc1N=NNc1ccc([N+](=O)[O-])cc1
inactive: dose: 75.0 mg/kg/injection, schedule: Q01DX001 (ip), vehicle: saline 108 % of control | dose: 150.0 mg/kg/injection, schedule: Q01DX001 (ip), vehicle: saline 104 % of control | dose: 300.0 mg/kg/injection, schedule: Q01DX001 (ip), vehicle: saline 98 % of control

COC1(OC)C(Cl)=C(Cl)C2C1C1(Cl)C(Cl)=C(Cl)C2(Cl)C1(OC)OC (configuration not stated)
inactive: [1] 98 % of control | [2] 98 % of control | dose: 400.0 mg/kg/injection, schedule: Q01DX009 (ip), vehicle: saline with Tween-80 96 % of control

COc1cccc(C(C)(C)CO)c1
inactive: [3] 93 % of control | [1] 89 % of control | [2] 89 % of control

CCC(C)(C)c1ccc(O)cc1
inactive: [3] 102 % of control | [1] 100 % of control

Cc1c(Cl)c(C)c(Cl)c(Cl)c1Cl
inactive: [4] 106 % of control | [5] 101 % of control | [6] 89 % of control | dose: 200.0 mg/kg/injection, schedule: Q01DX001 (ip), vehicle: saline 98 % of control | dose: 200.0 mg/kg/injection, schedule: Q01DX009 (ip), vehicle: saline 108 % of control | dose: 200.0 mg/kg/injection, schedule: Q04DX003 (ip), vehicle: saline 87 % of control | dose: 400.0 mg/kg/injection, schedule: Q01DX001 (ip), vehicle: saline 96 % of control | dose: 400.0 mg/kg/injection, schedule: Q01DX009 (ip), vehicle: saline 94 % of control | dose: 400.0 mg/kg/injection, schedule: Q04DX003 (ip), vehicle: saline 94 % of control

CC1=C(C(=O)O)CC(S(=O)(=O)O)C1(C)C (configuration not stated)
inactive: dose: 75.0 mg/kg/injection, schedule: Q01DX001 (ip), vehicle: acetone 96 % of control | dose: 150.0 mg/kg/injection, schedule: Q01DX001 (ip), vehicle: acetone 96 % of control | dose: 300.0 mg/kg/injection, schedule: Q01DX001 (ip), vehicle: acetone 92 % of control

NCCN=C(N)C(N)=NCCN
inactive: dose: 100.0 mg/kg/injection, schedule: Q04DX002 (ip), vehicle: saline 100 % of control | dose: 200.0 mg/kg/injection, schedule: Q04DX002 (ip), vehicle: saline 103 % of control | dose: 400.0 mg/kg/injection, schedule: Q04DX002 (ip), vehicle: saline 110 % of control

CC(C)(C)NCCCN1CC1(C)C (configuration not stated)
inactive: [7] 90 % of control | dose: 6.25 mg/kg/injection, schedule: Q04DX003 (ip), vehicle: saline 103 % of control | [8] 93 % of control | dose: 12.5 mg/kg/injection, schedule: Q04DX003 (ip), vehicle: saline 114 % of control | [9] 93 % of control and 121 % of control | [10] 117 % of control | [4] 110 % of control

Oc1ccc(C(c2ccc(O)c(Cl)c2)c2ccccn2)cc1Cl
inactive: dose: 100.0 mg/kg/injection, schedule: Q04DX003 (ip), vehicle: Klucel (hydroxypropylcellulose) (HPC) 102 % of control | dose: 200.0 mg/kg/injection, schedule: Q04DX003 (ip), vehicle: Klucel (hydroxypropylcellulose) (HPC) 98 % of control | dose: 400.0 mg/kg/injection, schedule: Q04DX003 (ip), vehicle: Klucel (hydroxypropylcellulose) (HPC) 100 % of control

Nc1ccc(OCCCCNC(=O)c2ccc(S(=O)(=O)F)cc2)c(Cl)c1
inactive: [1] 98 % of control | [11] 97 % of control | [2] 102 % of control | [12] 97 % of control | [13] 97 % of control

COc1ccc(C(=O)NS(=O)(=O)c2ccc(Cl)cc2)cc1
inactive: [11] 107 % of control | [12] 91 % of control | [13] 114 % of control

N=C(N)N/N=C(\C=N\NC(=N)N)c1ccc(Oc2ccc(C(/C=N/NC(=N)N)=N\NC(=N)N)cc2)cc1
inactive: dose: 3.8 mg/kg/injection, schedule: Q01DX Z (ip), vehicle: saline 98 % of control | dose: 7.5 mg/kg/injection, schedule: Q01DX Z (ip), vehicle: saline 114 % of control | dose: 15.0 mg/kg/injection, schedule: Q01DX Z (ip), vehicle: saline 118 % of control

CCN(CC)CCOC(=O)N(c1ccccc1)c1ccccc1
inactive: [7] 103 % of control | [8] 106 % of control | [9] 104 % of control | [10] 92 % of control | dose: 50.0 mg/kg/injection, schedule: Q01DX009 (ip), vehicle: saline 95 % of control | dose: 50.0 mg/kg/injection, schedule: Q04DX003 (ip), vehicle: saline 103 % of control | [5] 100 % of control | [6] 103 % of control

NNc1nc2ccccc2s1
inactive: dose: 6.25 mg/kg/injection, schedule: Q01DX009 (ip), vehicle: Klucel (hydroxypropylcellulose) (HPC) 90 % of control | dose: 12.5 mg/kg/injection, schedule: Q01DX009 (ip), vehicle: Klucel (hydroxypropylcellulose) (HPC) 100 % of control | dose: 25.0 mg/kg/injection, schedule: Q01DX009 (ip), vehicle: Klucel (hydroxypropylcellulose) (HPC) 94 % of control | dose: 50.0 mg/kg/injection, schedule: Q01DX009 (ip), vehicle: Klucel (hydroxypropylcellulose) (HPC) 91 % of control
